In US20100048462A1, “TRUNCATED PTH PEPTIDES WITH A CYCLIC CONFORMATION” (Zealand Pharma A/S, priority 2006, published 2010):
Bridge positions count the residues as written; N and C are the ends. Square brackets hold non-standard residues; d marks the D form. Peptide text beside a SMILES is read from it. hArg = N=C(N)NCCCC[C@H](N)C(=O)O; Ac5c = NC1(C(=O)O)CCCC1; Aib = CC(C)(N)C(=O)O

Biological target: CYP2D6 (Homo sapiens, UniProt P10635)
Assay: CYP2D6 inhibition in pooled human liver microsomes
Assay type: in vitro ADME
Set-up: Pooled human liver microsomes (HLM, final concentration 0.05 mg protein/mL); tissue BD Biosciences 452161; host or cells: pooled human liver microsomes
Procedure, shortened: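 Pooled HLM (0.05 mg/mL) in 0.1 M KPi pH 7.4 with 5 μM dextromethorphan and 10 μM test compound, preincubated 5 min at 37 °C, then started with NADPH-regenerating system for 5 min. Dextrorphan quantified by LC/MS/MS; activity expressed as % of vehicle; <70% considered significant.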

Sequence of CYP2D6 (P10635 whole entry): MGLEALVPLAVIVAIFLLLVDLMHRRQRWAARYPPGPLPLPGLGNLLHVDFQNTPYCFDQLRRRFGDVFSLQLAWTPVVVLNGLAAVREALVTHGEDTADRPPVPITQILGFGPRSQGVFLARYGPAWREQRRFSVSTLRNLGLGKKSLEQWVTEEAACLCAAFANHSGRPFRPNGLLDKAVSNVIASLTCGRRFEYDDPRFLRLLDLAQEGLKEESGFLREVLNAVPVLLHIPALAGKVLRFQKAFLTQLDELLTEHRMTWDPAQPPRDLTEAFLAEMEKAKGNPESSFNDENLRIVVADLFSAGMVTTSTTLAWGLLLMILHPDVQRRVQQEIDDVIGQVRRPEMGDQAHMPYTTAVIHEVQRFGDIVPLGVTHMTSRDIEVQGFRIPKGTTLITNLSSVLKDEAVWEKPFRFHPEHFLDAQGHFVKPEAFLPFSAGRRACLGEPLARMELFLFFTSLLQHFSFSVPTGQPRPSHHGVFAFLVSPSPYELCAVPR

Compound: CC[C@H](C)[C@H](NC(=O)[C@H](CCC(=O)O)NC(=O)C(C)(C)NC(=O)[C@@H](NC(=O)C1(N)CCCC1)C(C)C)C(=O)N[C@@H](CCC(N)=O)C(=O)N[C@@H](CC(C)C)C(=O)N[C@@H](CC(C)C)C(=O)N[C@@H](Cc1c[nH]cn1)C(=O)N[C@@H](CCC(N)=O)C(=O)N[C@@H](CCCCNC(=N)N)C(=O)N[C@@H](C)C(=O)N[C@H]1CCCCNC(=O)C[C@@H](C(N)=O)NC(=O)[C@H](CC(N)=O)NC(=O)[C@H](CC(C)C)NC(=O)[C@H](Cc2c[nH]c3ccccc23)NC1=O [SEQ ID NO: 19, H-Ac5c-Val-Aib-Glu-Ile-Gln-Leu-Leu-His-Gln-Har-Ala-Lys( )-Trp-Leu-Asn-Asp( )-NH2] (H-[Ac5c]V[Aib]EIQLLHQ[hArg]AKWLND-NH2; lactam 13-17)
- effect on CYP2D6 activity in words: absence of any inhibitory effect on CYP2D6 activity
- CYP2D6 activity (% of vehicle) (10 μM compound, dextrorphan formation rate): 90 % of vehicle
